IC90 data for 18 compounds are collected here from patent publication US12421211B2, “Heterocyclic compounds” (Hoffmann-La Roche Inc., priority 2021, dated 2025).

For orientation: IC90 means the concentration at which the effect reaches the 90% level.

Where a name gives a salt, the structure may show the parent alone.

The first experiment deals with Acinetobacter baumannii ATCC17961. In words: Antimicrobial susceptibility testing: 90% growth inhibitory concentration (IC90) determination. The following applies: 90% growth inhibitory concentration, Acinetobacter baumannii ATCC17961, Iso-Sensitest broth, OD 600 nm over 16 h; read-out: ATCC 17961 IC90. Type of experiment: cell-based. A digest of the protocol: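 Growth inhibition derived in log phase from OD600 kinetics (every 20 minutes, 16h, 35±2° C) of ATCC17961 in Iso-Sensitest medium, inoculum ~5×10^5 CFU/ml. Compounds tested as twofold series, 10 points (e.g. 50 to 0.097 μM final); IC90 and IC50 reported.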
Take `Cc1nn(CCOC(F)F)cc1-c1ccc(-c2cnc(C(=O)Nc3ccc(C(=O)N4CCN(C(=O)C5CC[N+](CC(=O)[O-])(CC6CNC6)CC5)CC4)c(Cl)c3)n2C)c(F)c1F` (stereo not drawn) [Example N4, cis 2-[1-(azetidin-3-ylmethyl)-4-[4-[2-chloro-4-[[5-[4-[1-[2-(difluoromethoxy)ethyl]-3-methyl-pyrazol-4-yl]-2,3-difluoro-phenyl]-1-methyl-imidazole-2-carbonyl]amino]benzoyl]piperazine-1-carbonyl]piperidin-1-ium-1-yl]acetate]: the IC90 amounted to 108 nM.

The same experiment, now with this note: Acinetobacter baumannii, ATCC17961, 16 h, 90% growth inhibitory concentration, Acinetobacter baumannii ATCC17961, Iso-Sensitest broth, OD 600 nm over 16 h; read-out: ATCC 17961 IC90.
Regarding `Cn1nccc1-c1n[nH]cc1-c1ccc(-c2cnc(C(=O)Nc3ccc(C(=O)N4CCN(C(=O)C5CC[N+](C)(C)CC5)CC4)c(Cl)c3)n2C)c(F)c1F` [Example F44, N-[3-chloro-4-[4-(1,1-dimethylpiperidin-1-ium-4-carbonyl)piperazine-1-carbonyl]phenyl]-5-[2,3-difluoro-4-[3-(2-methylpyrazol-3-yl)-1H-pyrazol-4-yl]phenyl]-1-methyl-imidazole-2-carboxamide; formate], the IC90 is 730 nM.

With `Cc1cc(N)cnc1-c1ccc(-c2cnc(C(=O)Nc3ccc(C(=O)N4CCN(C(=O)C5CC[N+](C)(C)CC5)CC4)c(Cl)c3)n2C)c(F)c1F` [Example F64, 5-[4-(5-amino-3-methyl-2-pyridyl)-2,3-difluoro-phenyl]-N-[3-chloro-4-[4-(1,1-dimethylpiperidin-1-ium-4-carbonyl)piperazine-1-carbonyl]phenyl]-1-methyl-imidazole-2-carboxamide; formate], the IC90 was 250 nM.

As for `COCCn1ncc(-c2ccc(-c3cnc(C(=O)Nc4ccc(C(=O)N5CCN(C(=O)CCC[N+](C)(CC(=O)O)CC6CNC6)CC5)c(Cl)c4)n3C)c(F)c2F)c1C` (stereo not drawn) [Example P1, azetidin-3-ylmethyl-(carboxymethyl)-[4-[4-[2-chloro-4-[[5-[2,3-difluoro-4-[1-(2-methoxyethyl)-5-methyl-pyrazol-4-yl]phenyl]-1-methyl-imidazole-2-carbonyl]amino]benzoyl]piperazin-1-yl]-4-oxo-butyl]-methyl-ammonium; formate], the IC90 was 191 nM.

With `COCCn1ncc(-c2ccc(-c3cnc(C(=O)Nc4ccc(C(=O)N5CCN(C(=O)C6CC[N+](C)(C)CC6)CC5)c(Cl)c4)n3C)c(OC)c2)c1C` [Example F18, N-[3-chloro-4-[4-(1,1-dimethylpiperidin-1-ium-4-carbonyl)piperazine-1-carbonyl]phenyl]-5-[2-methoxy-4-[1-(2-methoxyethyl)-5-methyl-pyrazol-4-yl]phenyl]-1-methyl-imidazole-2-carboxamide; formate], the IC90 amounted to 1100 nM.

Turning to `Cc1n[nH]c(C)c1-c1ccc(-c2cnc(C(=O)Nc3ccc(C(=O)N4CCN(C(=O)C[N+](C)(C)C)CC4)c(Cl)c3)n2C)cc1` [Example F52, [2-[4-[2-chloro-4-[[5-[4-(3,5-dimethyl-1H-pyrazol-4-yl)phenyl]-1-methyl-imidazole-2-carbonyl]amino]benzoyl]piperazin-1-yl]-2-oxo-ethyl]-trimethyl-ammonium; 2,2,2-trifluoroacetate], the IC90 came to 270 nM.

`Cc1nn(CC(=O)Nc2ccc[n+](C)c2)cc1-c1ccc(-c2cnc(C(=O)Nc3ccc(C(=O)N4CCN(C(=O)C5CC[N+](C)(C)CC5)CC4)c(Cl)c3)n2C)c(F)c1F` [Example G15, N-[3-chloro-4-[4-(1,1-dimethylpiperidin-1-ium-4-carbonyl)piperazine-1-carbonyl]phenyl]-5-[2,3-difluoro-4-[3-methyl-1-[2-[(1-methylpyridin-1-ium-3-yl)amino]-2-oxo-ethyl]pyrazol-4-yl]phenyl]-1-methyl-imidazole-2-carboxamide; diformate]: the IC90 is 300 nM.

On to `Cc1nn(CC(=O)Nc2cn[nH]c2)cc1-c1ccc(-c2cnc(C(=O)Nc3ccc(C(=O)N4CCN(C(=O)C5CC[N+](C)(C)CC5)CC4)c(Cl)c3)n2C)c(F)c1F` [Example G11, N-[3-chloro-4-[4-(1,1-dimethylpiperidin-1-ium-4-carbonyl)piperazine-1-carbonyl]phenyl]-5-[2,3-difluoro-4-[3-methyl-1-[2-oxo-2-(1H-pyrazol-4-ylamino)ethyl]pyrazol-4-yl]phenyl]-1-methyl-imidazole-2-carboxamide; formate], for which the IC90 turned out to be 710 nM.

Take `Cn1c(-c2ccc(-c3ccc(NCCC(N)=O)cn3)c(F)c2F)cnc1C(=O)Nc1ccc(C(=O)N2CCN(C(=O)C3CC[N+](C)(C)CC3)CC2)c(Cl)c1` [Example F63, 5-[4-[5-[(3-amino-3-oxo-propyl)amino]-2-pyridyl]-2,3-difluoro-phenyl]-N-[3-chloro-4-[4-(1,1-dimethylpiperidin-1-ium-4-carbonyl)piperazine-1-carbonyl]phenyl]-1-methyl-imidazole-2-carboxamide; formate]: the 90% effect concentration (IC90) is 560 nM.

Consider `COCCn1cc(-c2ccc(-c3cnc(C(=O)Nc4ccc(C(=O)N5CCN(C(=O)[C@@H]6C[C@@H](O)C[N+]6(C)CCCO)CC5)c(Cl)c4)n3C)c(F)c2F)c(C)n1` (stereo partly drawn) [Example B27, N-[3-chloro-4-[4-[(2S,4R)-4-hydroxy-1-(3-hydroxypropyl)-1-methyl-pyrrolidin-1-ium-2-carbonyl]piperazine-1-carbonyl]phenyl]-5-[2,3-difluoro-4-[1-(2-methoxyethyl)-3-methyl-pyrazol-4-yl]phenyl]-1-methyl-imidazole-2-carboxamide; iodide], for which the IC90 was 240 nM.

In the case of `Cc1n[nH]cc1-c1ccc(-c2cnc(C(=O)Nc3ccc(C(=O)N4CCN(C(=O)CCC[N+](CCCN)(CCCN)CC(=O)O)CC4)c(Cl)c3)n2C)c(F)c1F` [Example D41, bis(3-aminopropyl)-(carboxymethyl)-[4-[4-[2-chloro-4-[[5-[2,3-difluoro-4-(3-methyl-1H-pyrazol-4-yl)phenyl]-1-methyl-imidazole-2-carbonyl]amino]benzoyl]piperazin-1-yl]-4-oxo-butyl]ammonium; formic acid; formate], the IC90 is 61 nM.

For the compound `Cc1nn(CC2CC2(F)F)c(C)c1-c1ccc(-c2cnc(C(=O)Nc3ccc(C(=O)N4CCN(C(=O)C5C[C@@H](O)C[N+]5(C)C)CC4)c(Cl)c3)n2C)c(F)c1F` (stereo partly drawn) [Example K3, N-[3-chloro-4-[4-[(4R)-4-hydroxy-1,1-dimethyl-pyrrolidin-1-ium-2-carbonyl]piperazine-1-carbonyl]phenyl]-5-[4-[1-2,2-difluorocyclopropyl)methyl]-3,5-dimethyl-pyrazol-4-yl]-2,3-difluoro-phenyl]-1-methyl-imidazole-2-carboxamide; formate], the IC90 was 300 nM.

`Cc1nn(CC(=O)N2CCCCC2)cc1-c1ccc(-c2cnc(C(=O)Nc3ccc(C(=O)N4CCN(C(=O)C5CC[N+](C)(C)CC5)CC4)c(Cl)c3)n2C)c(F)c1F` [Example G29, N-[3-chloro-4-[4-(1,1-dimethylpiperidin-1-ium-4-carbonyl)piperazine-1-carbonyl]phenyl]-5-[2,3-difluoro-4-[3-methyl-1-[2-oxo-2-(1-piperidyl)ethyl]pyrazol-4-yl]phenyl]-1-methyl-imidazole-2-carboxamide; formate]: the IC90 is 330 nM.

As to `Cc1nn(Cc2c[nH]nn2)cc1-c1ccc(-c2cnc(C(=O)Nc3ccc(C(=O)N4CCN(C(=O)C5CC[N+](C)(C)CC5)CC4)c(Cl)c3)n2C)c(F)c1F` [Example F56, N-[3-chloro-4-[4-(1,1-dimethylpiperidin-1-ium-4-carbonyl)piperazine-1-carbonyl]phenyl]-5-[2,3-difluoro-4-[3-methyl-1-(1H-triazol-4-ylmethyl)pyrazol-4-yl]phenyl]-1-methyl-imidazole-2-carboxamide; formate], the concentration for an effect of 90% (IC90) stood at 330 nM.

In the case of `Cc1n[nH]cc1-c1ccc(-c2cnc(C(=O)Nc3ccc(C(=O)N4CCN(C(=O)C5CCNCC5)CC4)c(Cl)c3)n2C)c(F)c1F` [Example E19, N-[3-chloro-4-[4-(piperidine-4-carbonyl)piperazine-1-carbonyl]phenyl]-5-[2,3-difluoro-4-(3-methyl-1H-pyrazol-4-yl)phenyl]-1-methyl-imidazole-2-carboxamide], the IC90 was determined as 130 nM.

For the compound `COCCn1ncc(-c2ccc(-c3cnc(C(=O)Nc4ccc(C(=O)N5CCN(C(=O)C[N+]6(C)CCCC6)CC5)c(Cl)c4)n3C)c(F)c2F)c1C` [Example C14, N-[3-chloro-4-[4-[2-(1-methylpyrrolidin-1-ium-1-yl)acetyl]piperazine-1-carbonyl]phenyl]-5-[2,3-difluoro-4-[1-(2-methoxyethyl)-5-methyl-pyrazol-4-yl]phenyl]-1-methyl-imidazole-2-carboxamide; 2,2,2-trifluoroacetate], the IC90 was 82 nM.

Regarding `COCCn1ncc(-c2ccc(-c3cnc(C(=O)Nc4ccc(C(=O)N5CCN(C(=O)C6CC[N+](C)(C)CC6)CC5)c(Cl)c4)n3C)c(Cl)c2)c1C` [Example F22, N-[3-chloro-4-[4-(1,1-dimethylpiperidin-1-ium-4-carbonyl)piperazine-1-carbonyl]phenyl]-5-[2-chloro-4-[1-(2-methoxyethyl)-5-methyl-pyrazol-4-yl]phenyl]-1-methyl-imidazole-2-carboxamide; formate], the IC90 came to 170 nM.

Staying with this experiment, now noted: Acinetobacter baumannii, ATCC17961, 16 h, read-out: ATCC 17961 IC90.
For `COCCn1ncc(-c2ccc(-c3cnc(C(=O)Nc4ccc(C(=O)N5CCN(C(=O)C[N+](C)(C)C)CC5)c(Cl)c4)n3C)c(F)c2F)c1C` [Example A8, [2-[4-[2-chloro-4-[[5-[2,3-difluoro-4-[1-(2-methoxyethyl)-5-methyl-pyrazol-4-yl]phenyl]-1-methyl-imidazole-2-carbonyl]amino]benzoyl]piperazin-1-yl]-2-oxo-ethyl]-trimethyl-ammonium; 2,2,2-trifluoroacetate], the 90% effect concentration (IC90) amounted to 53 nM.
